The text below walks through data of patent publication US20180133221A1, “ADMINISTRATION OF UBIQUITIN-ACTIVATING ENZYME INHIBITOR AND CHEMOTHERAPEUTIC AGENTS” (Millennium Pharmaceuticals, Inc., priority 2014, published 2018).

The subject of experiment [1] is Calu-6 non-small cell lung cancer xenograft. As to the kind of experiment: Calu-6 xenograft model, Compound 1 and docetaxel. To be noted: for Tumor Volume Day 21: in mm³ (unit assumed). The experiment is classed as in vivo, nude mice. The method, then: Calu-6 is a non-small cell lung cancer cell-lined derived xenograft model. Nine week old female nude mice (Taconic Farms, Inc) were inoculated subcutaneously in the flank (cell suspension) with 4.0×10^6 Calu-6 cells suspended in serum free MEM. […] Docetaxel (Henry Schein, Inc., Pittsburgh Pa.) is formulated in 0.9% saline and administered by intravenous injection (IV) once weekly (QW) at 5 mg/kg or 10 mg/kg. […] Tumors were measured twice weekly using vernier calipers.

Experiment [2] has as its system PHTX-14B breast xenograft. As to the kind of experiment: PHTX-14B xenograft model, Compound 1 and docetaxel. The experiment is classed as in vivo, nude mice. To be noted: for Tumor Volume Day 28: in mm³ (unit assumed). The method, then: (§1) Docetaxel (Henry Schein, Inc., Pittsburgh Pa.) is formulated in 0.9% saline and administered by intravenous injection (IV) once weekly (QW) at 5 mg/kg or 10 mg/kg. […] Tumors were measured twice weekly using vernier calipers.

For experiment [3], the system named is PHTX-132Lu non-small cell lung xenograft. To be noted: for Tumor Volume Day 21: in mm³ (unit assumed). The source says: The PHTX-132Lu non-small cell lung xenograft model was established from a patient-derived tumor collected during surgery from a person with lung cancer (Poorly Differentiated Adenocarcinoma). PHTX-132Lu tumor fragments (approximately 2×2×3 mm^3) are implanted into the subcutaneous space in the right dorsal flank of female CB-17 SCID mice (age 10 weeks, Charles River Laboratory, Wilmington, Mass.) using a 13-gauge trocar. When the mean tumor volume reached approximately 220 mm^3, the animals were randomized into 12 treatment groups (n=5/group).
Carboplatin (Teva Pharmaceuticals) is formulated in 0.9% saline and administered by IP injection once weekly (QW) at 25, 50, 60, and 75 mg/kg. The once weekly schedule is also described as every 7 days (Q7D).
(§2) Compound 1 [((1R,2R,3S,4R)-2,3-dihydroxy-4-(2-(3-(trifluoromethylthio)-phenyl)pyrazolo[1,5-a]pyrimidin-7-ylamino)cyclopentyl)methyl sulfamate] is formulated in 10-20% HPbCD in sterile water and administered intravenously (IV) or subcutaneously (SC) on a BIW (twice/week schedule; Monday and Thursday or Tuesday and Friday) for either 2-4 weeks.
(§3) Tumors were measured twice weekly using vernier calipers. Tumor volumes were calculated using the standard formula V=W^2×L/2,). When mean tumor volumes reached approximately 200 mm^3 for PHTX-24C, 220 mm^3 for PHTX-Lu132, 150 mm^3 for CTG-0256, 260 mm^3 for CTG-0486, 185 mm^3 for PHTX-17C, 260 mm^3 for CTG-0165, 150 mm^3 for PHTX-14B in the study of Compound 1 and paclitaxel, 180 mm^3 for PHTX-14B in the study of Compound 1 and docetaxel, 200 mm^3 for SKOV-3, 220 mm^3 for PHTX-02B in the study of Compound 1 and docetaxel, 250 mm^3 for PHTX-02B in the study of Compound 1 and paclitaxel, 195 mm^3 for CTG-0159, 180 mm^3 for CTG-0012 or 150 mm^3 for Calu-6, mice were randomized into groups of n=5-7/arm as described in the tables below, and injected with vehicle, Compound 1 or agents (docetaxel, paclitaxel, oxaliplatin, cisplatin or carboplatin), or the combination of Compound 1 plus one of the agents, at various doses and schedules as described in tables below. Tumor size and body weight were measured approximately twice a week for the duration of the study. Mice are euthanized when their tumor volume reached 10% of their body weight, or when the average tumor volume of a treatment or control group reached approximately 2000 mm^3. Tumor growth continued to be monitored after the dosing period in some studies. Average tumor volume is reported as a function of time for selected arms of selected studies in the Figures.
(§4) Measurements from day 0 to day 14, day 19, day 21, or day 28 are analyzed as specified in Tables below. All tumor volumes have a value of 1 added to them before log10 transformation. For each animal, the log tumor volume at day 0 is subtracted from the log tumor volume on the subsequent days. This difference vs. time is used to calculate an area under the curve (AUC) for each animal using the trapezoid rule. […] The synergy score for the combination of agents A and B is defined as
(§5) 100*(mean(AUCAB)−mean(AUCA)−mean(AUCB)+mean(AUCctl))/mean(AUCctl):
(§6) where AUCAB, AUCA, AUCB, and AUCctl are the AUC values for animals in the combination group, the A group, the B group, and the control group, respectively. The standard error of the synergy score is computed based on the variation in the AUC values among the animals. […] If the P-value is above 0.05, then the combination is considered to be additive. If the P-value is below 0.05, and the synergy score is less than zero, then the combination is considered to be synergistic.

Experiment [4] deals with CTG-0159 human lung NSCLC xenograft. As to the kind of experiment: CTG-0159 xenograft model, Compound 1 and docetaxel. The experiment is classed as in vivo, Mus musculus/nu/nu mice. To be noted: for Tumor Volume Day 21: in mm³ (unit assumed). The method, then:
as §1

The subject of experiment [5] is CTG-0165 human lung NSCLC xenograft. As to the kind of experiment: CTG-0165 xenograft model, Compound 1 and cisplatin. The experiment is classed as in vivo, Mus musculus/nu/nu mice. To be noted: for Tumor Volume Day 21: in mm³ (unit assumed). The method, then:
CTG-0165 tumor fragments (approximately 2×2×3 mm^3) were implanted into the subcutaneous space in the right dorsal flank of female Mus musculus/nu/nu mice (age 6-9 weeks, Harlan Laboratories, Madison, Wis., USA) using a 13-gauge trocar. When the mean tumor volume reached approximately 260 mm^3, the animals were randomized into 8 treatment groups (n=5/group).
Cisplatin (Teva Pharmaceuticals) is formulated in 0.9% saline and administered by IV injection once weekly (QW) at 7.5 mg/kg. The once weekly schedule is also described as every 7 days (Q7D).
as §2, §3, §4, §5, §6

The next experiment has as its system PHTX-24C colon xenograft. As to the kind of experiment: PHTX-24C xenograft model, Compound 1 and oxaliplatin. The experiment is classed as in vivo, CB-17 SCID mice. The method, then: Oxaliplatin (Jiang Su Geng Rui Pharmaceuticals, Inc.) is formulated in 0.9% saline and administered by IP injection once weekly (QW) at 7.5 or 12.5 mg/kg. The once weekly schedule is also described as every 7 days (Q7D).
as §2, §3, §4, §5
where AUCAB, AUCA, AUCB, and AUCctl are the AUC values for animals in the combination group, the A group, the B group, and the control group, respectively. […]

Like-named read-outs stand apart in the source and are kept apart here.

On to `NS(=O)(=O)OC[C@H]1C[C@@H](Nc2ccnc3cc(-c4cccc(SC(F)(F)F)c4)nn23)[C@H](O)[C@@H]1O` [Compound 1, ((1R,2R,3S,4R)-2,3-dihydroxy-4-(2-(3-(trifluoromethylthio)phenyl)pyrazolo[1,5-a]pyrimidin-7-ylamino)cyclopentyl)methyl sulfamate], for which the “Tumor Volume Day 21” value in experiment [1] (5 mg/kg Compound 1 BIWx3 IV) is 1302.2; in experiment [1] (10 mg/kg Compound 1 BIWx3 IV), 1346.4; in experiment [1] (15 mg/kg Compound 1 BIWx3 IV), 1072.4; in experiment [3] (5 mg/kg Compound 1 BIWx3 IV) it was 882.7; in experiment [3] (10 mg/kg Compound 1 BIWx3 IV), 653.5; in experiment [3] (15 mg/kg Compound 1 BIWx3 IV), 483.7. In addition, the “Tumor Volume Day 21” value is recorded as 1618.9 in experiment [4] (6.25 mg/kg Compound 1 BIWx3 IV); 2373.2 in experiment [4] (15 mg/kg Compound 1 BIWx3 IV); 1376.2 in experiment [4] (20 mg/kg Compound 1 BIWx3 IV); 988.8 in experiment [5] (6.25 mg/kg Compound 1 BIWx3 IV); 1624.9 in experiment [5] (15 mg/kg Compound 1 BIWx3 IV); 1476.3 in experiment [5] (20 mg/kg Compound 1 BIWx3 IV). In addition, in the experiment with PHTX-24C colon xenograft (10 mg/kg Compound 1 BIWx3 IV, in mm³ (unit assumed)), the “Tumor Volume Day 21” value is 609.3. In addition, the “anti-tumor responses compared to the vehicle control” value in experiment [1] (single agent Compound 1 IV at 5, 10 and 20 mg/kg IV BIW) was “modest anti-tumor responses”. The “Tumor Volume Day 28” value is reported as 499.4 in experiment [2] (10 mg/kg Compound 1 BIWx3 SC) and 399.4 in experiment [2] (20 mg/kg Compound 1 BIWx3 SC). The “tumor growth compared to the vehicle control group” value in experiment [2] (single agent Compound 1 SC at 20 and 10 mg/kg BIW) is reported as “inhibited tumor growth”. Besides, the “anti-tumor activity compared to vehicle control” value in experiment [3] (single agent Compound 1 IV at 5, 10 and 15 mg/kg BIW) was “modest anti-tumor activity”; in experiment [5] (single agent Compound 1 IV at 20, 15, 6.25 mg/kg BIW), “modest to weak anti-tumor activity”; with PHTX-24C colon xenograft (single agent Compound 1 IV at 10 mk/kg BIW) it was “modest anti-tumor activity”. In experiment [4] (Compound 1 alone at 20, 15, and 6.25 mg/kg IV BIW), the tumor growth result is recorded as “did not inhibit tumor growth”.
